Publication PMC9150076 (Journal of Medicinal Chemistry, 2022)

Columns and labels:
PDAC3 cells [1] = test: Wound-healing/migration assay, PDAC3; assay type: cell-based, human; settings: PDAC3, 20 h, drug at 5× IC50; control 59 ± 8%
[2] = Stability test in polar solvents; assay type: physicochemical
Description: Each compound was dissolved at RT in MeOH or PBS (25 mM, pH 7.4) up to a final concentration of 500 μM. Aliquot samples (20 μL) were taken at fixed time points (0.0, 4.0, 8.0, and 24.0 h) and were analyzed by UV/LC–MS. For each compound, the determination was performed in three independent experiments.

PDAC3 cells [3] = test: Apoptosis assay, Annexin-V staining, PDAC3; assay type: cell-based, human; settings: PDAC3, drug at IC50, 72 h, compared to untreated cells
[4] = tested on: SUIT-2 immortalized cell line; test: Growth inhibition, SRB assay, SUIT-2; assay type: cell-based; settings: Homo sapiens, SUIT-2, 72 h, read-out: IC50 antiproliferative activity
ABHD6 = ABHD6 (Mus musculus, UniProt Q8R2Y0)
Sequence of ABHD6 (Q8R2Y0 whole entry): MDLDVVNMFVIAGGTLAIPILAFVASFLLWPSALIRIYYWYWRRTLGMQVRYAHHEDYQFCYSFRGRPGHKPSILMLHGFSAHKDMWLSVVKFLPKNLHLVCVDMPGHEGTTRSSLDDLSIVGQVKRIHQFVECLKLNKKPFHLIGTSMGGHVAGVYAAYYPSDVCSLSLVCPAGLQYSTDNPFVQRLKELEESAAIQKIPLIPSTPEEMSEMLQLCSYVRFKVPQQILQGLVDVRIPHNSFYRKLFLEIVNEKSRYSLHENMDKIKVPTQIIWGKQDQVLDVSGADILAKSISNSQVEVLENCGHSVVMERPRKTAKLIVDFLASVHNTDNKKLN

MMP9 = test: qRT-PCR gene expression, MMP9; assay type: cell-based; settings: 5× IC50, 24 h, compared to untreated cells
Description: (§1) To elucidate the previous data on apoptosis and migration and the mechanism of interaction, further studies focused on several potential cellular determinants and effectors of drug activities, such as the anti-apoptotic factor Bcl-2, the key matrix metalloproteinase 9 (MMP9), which promotes cell migration, and the main gemcitabine transporter, the human equilibrative nucleoside transporter 1 (hENT1).
(§2) Real-time quantitative reverse transcription PCR (qRT-PCR) was performed to evaluate the gene expression of MMP9, BCL-2, BCL-x, and hENT1, using β-actin, and GAPDH as housekeeping genes. […] Total RNA was extracted using the TRIzol Reagent (15596–026, ThermoFisher Scientific, Waltham, MA) according to the manufacturer’s protocol. One microgram of RNA was reverse transcribed using first-strand cDNA synthesis (First Strand cDNA Synthesis Kit; ThermoFisher #K1612) on a Bio-Rad machine C100 Thermal Cycler. Real-time qPCR quantification was performed using specific TaqMan detection probes and primers (TaqMan Universal PCR Master Mix #4304437; Thermo Fisher Scientific, USA) with the ABIPRISM-7500 instrument (Applied Biosystems, Foster City, CA), as described previously.[60] Data obtained were analyzed according to the 2^–ΔΔCt method.

hCB1 = target: T1, hCB1 (Homo sapiens, UniProt P21554); test: CB1 binding assay, [3H]CP55,940 displacement
T1 construct: expressed in transfected cells
T1 sequence (P21554 whole entry): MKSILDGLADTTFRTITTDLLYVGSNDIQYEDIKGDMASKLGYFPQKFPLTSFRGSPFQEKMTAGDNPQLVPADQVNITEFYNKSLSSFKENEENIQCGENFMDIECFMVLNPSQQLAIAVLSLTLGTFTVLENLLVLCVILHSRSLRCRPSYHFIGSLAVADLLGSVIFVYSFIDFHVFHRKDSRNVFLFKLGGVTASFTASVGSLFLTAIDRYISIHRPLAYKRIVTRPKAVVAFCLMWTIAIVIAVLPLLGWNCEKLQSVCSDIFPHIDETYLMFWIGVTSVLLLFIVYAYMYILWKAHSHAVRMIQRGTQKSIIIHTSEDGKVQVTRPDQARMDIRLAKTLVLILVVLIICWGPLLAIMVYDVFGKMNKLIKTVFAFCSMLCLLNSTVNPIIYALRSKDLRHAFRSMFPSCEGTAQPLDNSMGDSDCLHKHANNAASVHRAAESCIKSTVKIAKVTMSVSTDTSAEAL

PDAC3 cells [5] = test: Pharmacological interaction with gemcitabine, median drug effect analysis, PDAC3; assay type: cell-based, human
Description: The combination index (CI) was calculated to compare cell growth inhibition of the combination and each drug alone. Data analysis was carried out using CalcuSyn software (Biosoft, Oxford, UK). A CI of below 0.8 indicates a synergetic cytotoxic effect. A CI between 0.8 and 1.2 indicates an additive effect and above 1.2 indicates an antagonistic effect of the combination therapy.

Bcl-2 = test: qRT-PCR gene expression, Bcl-2; assay type: cell-based; settings: 5× IC50, 24 h, compared to untreated cells
Description: as §1, §2

[6] = Stability test in human plasma; assay type: in vitro ADME; settings: 37 °C
Description: The incubation mixture (total volume of […]) was constituted by the following components: pooled human plasma (1.5 mL, 55.7 mg protein/mL),[65] HEPES buffer (1.4 mL, 25 mM, 140 mM NaCl pH 7.4), and 100 μL of each compound in DMSO (3.0 mM). The solution was mixed in a test tube that was incubated at 37 °C. At set time points (0.0, 0.25, 0.50, 1.0, 2.0, 4.0, 8.0, and 24.0 h), samples of 100 μL were taken, mixed with 400 μL of cold acetonitrile, and centrifuged at 5000 rpm for 15 min.[66] The supernatant was removed and analyzed by UV/LC–MS. For each compound, the determination was performed in three independent experiments.

Structure (SMILES): O=C(c1cc(O)ccc1F)N1CCC(Cc2cccc(Oc3cc(C(F)(F)F)ccn3)c2)CC1 [Compound 13, (2-Fluoro-5-hydroxyphenyl)(4-(3-((4-(trifluoromethyl)pyridin-2-yl)oxy)benzyl)piperidin-1-yl)methanone]
- scratch area closed (PDAC3 cells [1]): 38 ± 6%
- stability MeOH ([2]; MeOH, RT): >24 h
- stability PBS pH 7.4 ([2]; PBS pH 7.4, RT): >24 h
- induction of apoptosis (PDAC3 cells [3]): strongly enhanced apoptosis induction
- IC50 [4]: 11.2 µM
- TAMRA-FP labelling of ABHD6 band (ABPP) (ABHD6): without affecting
- MMP9 gene expression (MMP9): significant reduction
- IC50 (hCB1): > 10 µM
- interaction with gemcitabine (CI) (PDAC3 cells [5]; PDAC3, compound 13 at IC25, gemcitabine 0–1.25 μM): additive
- interaction with gemcitabine (CI) (PDAC3 cells [5]; PDAC3, compound 13 at IC50, gemcitabine 0–1.25 μM): synergy
- Bcl-2 gene expression (Bcl-2): slight reduction
- stability human plasma [6]: >24 h
